Experimental data taken from patent US20100267561A1, “HERBICIDAL PYRIDAZINONE DERIVATIVES” (priority 2007, published 2010).

Experiments:
Type in all cases: in vivo
[1] = system: barnyardgrass (Echinochloa crus-galli); assay: Test B flooded paddy test plant response
Method in brief: (§1)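 Compounds were added directly to paddy water over 2-leaf-stage plants in pots flooded 3 cm above soil, water depth maintained. Visual injury scored against controls after 13 to 15 days in greenhouse, 0 (none) to 100 (complete control); dash indicates no result.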

[2] = system: ducksalad (Heteranthera limosa); assay: Test B flooded paddy test plant response
Method in brief: as §1

rice (Oryza sativa) = assay: Test B flooded paddy test plant response
Method in brief: as §1

[3] = system: umbrella sedge (Cyperus difformis); assay: Test B flooded paddy test plant response
Method in brief: as §1

[4] = system: common ragweed (Ambrosia elation); assay: Test B pre-/postemergence plant response; conditions: for Ragweed plant response rating: 8 g ai/ha
Method in brief: (§2)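 Seeds were sown and sprayed preemergence, while plants at 2 to 18 cm (1- to 4-leaf stage) got postemergence sprays. Compounds were formulated in a non-phytotoxic solvent mixture with surfactant. After 13 to 15 days in a greenhouse, injury was rated visually against untreated controls, 0 (no effect) to 100 (complete control).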

[5] = system: Italian ryegrass (Lolium multiflorum); assay: Test B pre-/postemergence plant response; conditions: for Ryegrass, Italian plant response rating: 8 g ai/ha
Method in brief: as §2

soybean (Glycine max) = assay: Test B pre-/postemergence plant response
Method in brief: as §2

[6] = system: large crabgrass (Digitaria sanguinalis); assay: Test B pre-/postemergence plant response; conditions: for Crabgrass, Large plant response rating: 8 g ai/ha
Method in brief: as §2

[7] = system: cocklebur (Xanthium strumarium); assay: Test B pre-/postemergence plant response; conditions: for Cocklebur plant response rating: 8 g ai/ha
Method in brief: as §2

[8] = system: velvetleaf (Abutilon theophrasti); assay: Test B pre-/postemergence plant response; conditions: for Velvetleaf plant response rating: 8 g ai/ha
Method in brief: as §2

[9] = system: goosegrass (Eleusine indica); assay: Test B pre-/postemergence plant response; conditions: for Goosegrass plant response rating: 8 g ai/ha
Method in brief: as §2

[10] = system: Russian thistle (Salsola iberica); assay: Test B pre-/postemergence plant response; conditions: Preemergence; for Plant response rating, Russian Thistle: scale 0 to 100 (0 no effect, 100 complete control)
Method in brief: as §2

[11] = system: lambsquarters (Chenopodium album); assay: Test B pre-/postemergence plant response; conditions: for Lambsquarters plant response rating: 8 g ai/ha
Method in brief: as §2

[12] = system: bermudagrass (Cynodon dactylon); assay: Test B pre-/postemergence plant response; conditions: for Bermudagrass plant response rating: 8 g ai/ha
Method in brief: as §2

[13] = Flood (flooded paddy test), 62 g ai/ha, scale 0 to 100, 0 no effect, 100 complete control
[14] = Flood (flooded paddy test), 125 g ai/ha, scale 0 to 100, 0 no effect, 100 complete control
[15] = Flood (flooded paddy test), 250 g ai/ha, scale 0 to 100, 0 no effect, 100 complete control
[16] = Flood, 31 g ai/ha, scale 0 to 100
[17] = Postemergence, 16 g ai/ha, scale 0 to 100
[18] = Postemergence, 31 g ai/ha, scale 0 to 100
[19] = Postemergence, 62 g ai/ha, scale 0 to 100, 0 no effect, 100 complete control
[20] = Preemergence, 16 g ai/ha, scale 0 to 100 (0 no effect, 100 complete control)
[21] = Preemergence, 31 g ai/ha, scale 0 to 100 (0 no effect, 100 complete control)
[22] = Preemergence, 62 g ai/ha, scale 0 to 100
[23] = Preemergence, 31 g ai/ha, 0 to 100 scale, 0 no effect, 100 complete control

## Cn1ncc(O)c(-n2nc(-c3ccc(Cl)cc3)cc2C2CC2)c1=O [Compound 45]
[1]; [13]
  Plant response rating, Barnyardgrass: 20
[1]; [14]
  Plant response rating, Barnyardgrass: 60
[1]; [15]
  Plant response rating, Barnyardgrass: 65
[1]; [16]
  Plant response rating, Barnyardgrass: 20
[2]; [13]
  Plant response rating, Ducksalad: 0
[2]; [14]
  Plant response rating, Ducksalad: 0
[2]; [15]
  Plant response rating, Ducksalad: 75
[2]; [16]
  Plant response rating, Ducksalad: 0
Rice (Oryza sativa); [13]
  Plant response rating, Rice: 0
Rice (Oryza sativa); [14]
  Plant response rating, Rice: 45
Rice (Oryza sativa); [15]
  Plant response rating, Rice: 45
Rice (Oryza sativa); [16]
  Plant response rating, Rice: 0
[3]; [13]
  Plant response rating, Sedge, Umbrella: 0
[3]; [14]
  Plant response rating, Sedge, Umbrella: 0
[3]; [15]
  Plant response rating, Sedge, Umbrella: 65
[3]; [16]
  Plant response rating, Sedge, Umbrella: 0
[4]; postemergence, 0-100 scale
  Ragweed plant response rating: 0
[4]; [17]
  Plant response rating, Ragweed: 0
[4]; [18]
  Plant response rating, Ragweed: 0
[4]; [19]
  Plant response rating, Ragweed: 0
[4]; [20]
  Plant response rating, Ragweed: 0
[4]; [21]
  Plant response rating, Ragweed: 0
[4]; [22]
  Plant response rating, Ragweed: 0
[4]; Preemergence, scale 0 to 100
  Ragweed plant response rating: 0
[5]; postemergence, 0-100 scale
  Ryegrass, Italian plant response rating: 70
[5]; [17]
  Plant response rating, Ryegrass, Italian: 90
[5]; [18]
  Plant response rating, Ryegrass, Italian: 100
[5]; [19]
  Plant response rating, Ryegrass, Italian: 100
[5]; [20]
  Plant response rating, Ryegrass, Italian: 90
[5]; [21]
  Plant response rating, Ryegrass, Italian: 100
[5]; [22]
  Plant response rating, Ryegrass, Italian: 100
[5]; Preemergence, scale 0 to 100
  Ryegrass, Italian plant response rating: 0
Soybean (Glycine max); 8 g ai/ha, postemergence, 0-100 scale
  Soybean plant response rating: 0
Soybean (Glycine max); [17]
  Plant response rating, Soybean: 0
Soybean (Glycine max); [18]
  Plant response rating, Soybean: 0
Soybean (Glycine max); [19]
  Plant response rating, Soybean: 0
Soybean (Glycine max); [20]
  Plant response rating, Soybean: 0
Soybean (Glycine max); [22]
  Plant response rating, Soybean: 65
[6]; postemergence, 0-100 scale
  Crabgrass, Large plant response rating: 65
[6]; [17]
  Plant response rating, Crabgrass, Large: 80
[6]; [18]
  Plant response rating, Crabgrass, Large: 100
[6]; [19]
  Plant response rating, Crabgrass, Large: 100
[6]; [20]
  Plant response rating, Crabgrass, Large: 0
[6]; [23]
  Plant response rating, Crabgrass, Large: 0
[6]; [22]
  Plant response rating, Crabgrass, Large: 0
[6]; Preemergence, scale 0 to 100
  Crabgrass, Large plant response rating: 0
[7]; postemergence, 0-100 scale
  Cocklebur plant response rating: 0
[7]; [17]
  Plant response rating, Cocklebur: 0
[7]; [18]
  Plant response rating, Cocklebur: 0
[7]; [19]
  Plant response rating, Cocklebur: 0
[7]; [20]
  Plant response rating, Cocklebur: 0
[7]; [23]
  Plant response rating, Cocklebur: 0
[7]; [22]
  Plant response rating, Cocklebur: 0
[7]; Preemergence, scale 0 to 100
  Cocklebur plant response rating: 0
[8]; postemergence, 0-100 scale
  Velvetleaf plant response rating: 0
[8]; [17]
  Plant response rating, Velvetleaf: 0
[8]; [18]
  Plant response rating, Velvetleaf: 0
[8]; [19]
  Plant response rating, Velvetleaf: 0
[8]; [20]
  Plant response rating, Velvetleaf: 0
[8]; [21]
  Plant response rating, Velvetleaf: 0
[8]; Preemergence, 62 g ai/ha, 0 to 100 scale, 0 no effect, 100 complete control
  Plant response rating, Velvetleaf: 0
[8]; Preemergence, scale 0 to 100
  Velvetleaf plant response rating: 0
[9]; postemergence, 0-100 scale
  Goosegrass plant response rating: 65
[9]; [17]
  Plant response rating, Goosegrass: 70
[9]; [18]
  Plant response rating, Goosegrass: 80
[9]; [19]
  Plant response rating, Goosegrass: 95
[9]; [20]
  Plant response rating, Goosegrass: 0
[9]; [23]
  Plant response rating, Goosegrass: 0
[9]; [22]
  Plant response rating, Goosegrass: 0
[9]; Preemergence, scale 0 to 100
  Goosegrass plant response rating: 0
[10]; 16 g ai/ha
  Plant response rating, Russian Thistle: 0
[10]; 31 g ai/ha
  Plant response rating, Russian Thistle: 0
[10]; 8 g ai/ha, scale 0 to 100
  Russian Thistle plant response rating: 0
[11]; postemergence, 0-100 scale
  Lambsquarters plant response rating: 0
[11]; [17]
  Plant response rating, Lambsquarters: 0
[11]; [18]
  Plant response rating, Lambsquarters: 0
[11]; [19]
  Plant response rating, Lambsquarters: 0
[11]; [20]
  Plant response rating, Lambsquarters: 0
[11]; [23]
  Plant response rating, Lambsquarters: 0
[11]; [22]
  Plant response rating, Lambsquarters: 0
[11]; Preemergence, scale 0 to 100
  Lambsquarters plant response rating: 0
[12]; postemergence, 0-100 scale
  Bermudagrass plant response rating: 60
[12]; [17]
  Plant response rating, Bermudagrass: 95
[12]; [18]
  Plant response rating, Bermudagrass: 98
[12]; [19]
  Plant response rating, Bermudagrass: 98
[12]; Preemergence, scale 0 to 100 (0 no effect, 100 complete control)
  Bermudagrass plant response rating: 0
[12]; [20]
  Plant response rating, Bermudagrass: 0
[12]; [23]
  Plant response rating, Bermudagrass: 0
[12]; [22]
  Plant response rating, Bermudagrass: 0
